Measurements: PubChem BioAssay (NCI)
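Dose response: 5 concentrations. Exposure: 48 h. Format: 96-well plates. Endpoint: linear interpolation; highest concentration if not reached. TGI is the concentration that stops growth completely.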

Columns and labels:
Experiment in all cases: growth of human tumour cells (NCI), 48 h
[1] = system: SR leukemia
[2] = system: RXF 393 renal
[3] = system: MDA-MB-231 breast
[4] = system: NCI-H460 lung
[5] = system: KM12 colon
[6] = system: HS 578T breast
[7] = system: MDA-MB-435
[8] = system: UACC-62 melanoma
[9] = system: NCI/ADR-RES ovarian
[10] = system: 786-0 renal
[11] = system: DU-145 prostate
[12] = system: HCC-2998 colon
[13] = system: RPMI-8226 leukemia
[14] = system: MDA-N
[15] = system: U251 CNS
[16] = system: OVCAR-8 ovarian
[17] = system: SNB-75 CNS
[18] = system: PC-3 prostate
[19] = system: EKVX NSCLC
[20] = system: HCT-116 colon
[21] = system: NCI-H23 lung
[22] = system: HCT-15 colon
[23] = system: HT29 colon
[24] = system: SF-539 CNS
[25] = system: SK-MEL-28 melanoma
[26] = system: HOP-62 NSCLC
[27] = system: SK-MEL-2 melanoma
[28] = system: MOLT-4 leukemia
[29] = system: IGROV1 ovarian
[30] = system: SF-268 CNS
[31] = system: A549 NSCLC
[32] = system: MALME-3M melanoma
[33] = system: OVCAR-5 ovarian
[34] = system: K-562 leukemia
[35] = system: SK-MEL-5 melanoma
[36] = system: CCRF-CEM leukemia
[37] = system: UACC-257 melanoma
[38] = system: TK-10 renal
[39] = system: BT-549 breast
[40] = system: HL-60(TB) leukemia
[41] = system: LOX IMVI melanoma
[42] = system: ACHN renal
[43] = system: SF-295 CNS
[44] = system: SNB-19 CNS
[45] = system: NCI-H522 lung
[46] = system: SW-620 colon
[47] = system: UO-31 renal
[48] = system: MCF7 breast
[49] = system: M14 melanoma
[50] = system: OVCAR-3 ovarian
[51] = system: SN12C renal
[52] = system: COLO 205 colon
[53] = system: A498 renal
[54] = system: CAKI-1 renal
[55] = system: SK-OV-3 ovarian
[56] = system: OVCAR-4 ovarian
[57] = system: HOP-92 NSCLC
[58] = system: NCI-H226 lung

Measured: TGI

C=CCCC(CCC=C)(C(=O)O)C(=O)O
not listed: [53] | [54] | [55] | [56] | [57] | [58]
> 100 µM: all other assays above

CN(C)CCCNC(=S)S
not listed: [8] | [12] | [17] | [47]
> 100 µM: all other assays above
